From publication PMC10609143, “Inhibitory Mechanisms of Lekethromycin in Dog Liver Cytochrome P450 Enzymes Based on UPLC-MS/MS Cocktail Method” (Molecules, 2023) come the findings set out here.

Holding throughout (type): in vitro ADME
In one data set the target is T1, CYP1A2 (Canis lupus familiaris, UniProt P56592).
T1 construct: from tissue; host or cells: dog liver microsomes (DLM)
T1 sequence (P56592 1-512): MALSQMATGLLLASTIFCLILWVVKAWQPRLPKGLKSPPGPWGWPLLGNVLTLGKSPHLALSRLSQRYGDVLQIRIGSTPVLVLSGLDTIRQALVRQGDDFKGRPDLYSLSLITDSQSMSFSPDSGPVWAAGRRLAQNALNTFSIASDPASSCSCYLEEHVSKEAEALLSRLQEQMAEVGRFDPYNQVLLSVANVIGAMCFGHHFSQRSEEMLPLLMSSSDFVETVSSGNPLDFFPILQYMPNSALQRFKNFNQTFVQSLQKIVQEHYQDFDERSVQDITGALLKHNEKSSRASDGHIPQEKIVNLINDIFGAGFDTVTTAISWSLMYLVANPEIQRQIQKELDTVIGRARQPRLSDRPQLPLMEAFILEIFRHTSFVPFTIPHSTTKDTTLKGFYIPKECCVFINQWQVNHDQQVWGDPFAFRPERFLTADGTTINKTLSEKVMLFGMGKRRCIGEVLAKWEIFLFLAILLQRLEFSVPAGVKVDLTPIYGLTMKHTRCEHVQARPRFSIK
The data set is described as follows: CYP450 inhibition study of LKMS in dog liver microsomes (cocktail, UPLC-MS/MS), phenacetin O-deethylation. The following applies: probe at Km, 15 min, 0.2 mg/mL protein, n = 3. How it is done: (§1) All experiments were performed in triplicate.
(§2) Inhibition assessment of CYP450 isoforms in DLM was performed with a fixed concentration of model probe substrates and a series of concentrations of LKMS ranging from 0 to 80 μM. The concentration of probe substrates was at a concentration of Km in this study. […] Mode inhibition was examined based on a primary Lineweaver–Burk plot and a secondary plot.
(§3) The IC50 values and enzyme kinetic parameters were determined by plotting relative activities over the logarithm of the concentration of LKMS using GraphPad (v.8.0.2, CA, USA). The mode of the inhibitor was analyzed using a Lineweaver–Burk plot and a secondary plot for inhibition constant (Ki and αKi) values. All experimental data are shown as mean ± standard deviation (SD).
A general note: Liver microsomes are a subcellular fraction often used to study metabolism.

Data set [1] relates to CYP2A6. The data set is described as follows: CYP450 inhibition study of LKMS in dog liver microsomes, coumarin hydroxylation. The procedure: as §1, §2, §3
The next data set deals with CYP2C9. The experiment in a line: CYP450 inhibition study of LKMS in dog liver microsomes, tolbutamide 4-hydroxylation. The following applies: probe at Km, 15 min, 0.2 mg/mL protein, n = 3. The procedure:
as §1, §2, §3

For the next data set, the target named is T2, CYP2E1 (Canis lupus familiaris, UniProt Q9MZY0).
T2 construct: from tissue; host or cells: dog liver microsomes (DLM)
The experiment in a line: CYP450 inhibition study of LKMS in dog liver microsomes, chlorzoxazone hydroxylation. As to conditions: probe at Km, 15 min, 0.2 mg/mL protein, n = 3. How it is done: as §1, §2, §3

Data set [2] concerns CYP2A6. The data set is described as follows: Irreversible inhibition (IC50 shift) in dog liver microsomes. The procedure:
(§4) To characterize the reversible or irreversible mechanism of CYP450 inhibition via LKMS, the shifted IC50 values were used to determine whether the inhibition of LKMS on CYP450 was time-dependent. […] The above mixture was then incubated for another 30 min in the presence of NADPH. The concentrations of LKMS were designated as 0.2, 2, 4, 6, 8, 10, 20, 40, and 80 μM, and the concentration of each probe substrate was based on each Km value. The concentrations of the probe substrates of CYP2A6, CYP2B6, and CYP2D6 were at single concentrations approximating their Km values.

For another data set, the target named is T3, CYP2B6 (Canis lupus familiaris, UniProt P24460).
T3 construct: from tissue; host or cells: dog liver microsomes (DLM)
T3 sequence (P24460 1-494): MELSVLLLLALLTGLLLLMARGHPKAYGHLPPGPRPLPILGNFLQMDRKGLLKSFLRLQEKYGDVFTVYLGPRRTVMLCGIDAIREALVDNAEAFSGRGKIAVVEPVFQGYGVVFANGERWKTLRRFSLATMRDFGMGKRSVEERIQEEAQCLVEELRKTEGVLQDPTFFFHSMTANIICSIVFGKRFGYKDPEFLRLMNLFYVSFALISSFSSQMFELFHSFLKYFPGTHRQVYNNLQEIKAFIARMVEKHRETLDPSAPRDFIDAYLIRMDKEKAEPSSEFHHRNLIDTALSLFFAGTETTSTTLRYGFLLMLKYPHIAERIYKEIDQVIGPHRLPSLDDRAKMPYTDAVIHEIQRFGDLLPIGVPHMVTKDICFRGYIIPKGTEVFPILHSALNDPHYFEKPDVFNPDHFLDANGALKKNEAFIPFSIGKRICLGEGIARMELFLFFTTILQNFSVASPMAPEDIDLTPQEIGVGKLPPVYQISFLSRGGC
Described as above. The procedure: as §4

Data set [3] relates to CYP450 enzymes in dog liver microsomes. The data set is described as follows: Chemical inhibition experiments: LKMS disappearance rate with selective CYP450 inhibitors. The following applies: n = 3. How it is done: The effect of selective inhibitors on the rate of LKMS disappearance was investigated to identify the metabolizing enzymes of LKMS. The total volume of the incubation system was 200 μL, which contained the tested compound, inhibitors, PBS (pH = 7.4), LKMS, and NADPH. The study was performed via incubation with different inhibitors of CYP450 as follows: α-naphthoflavone (CYP1A2, 2 μM), pilocarpine (CYP2A6, 8 μM), Thio-TEPA (CYP2B6, 6 μM), sulfaphenazole (CYP2C9, 6 μM), quinidine (CYP2D6, 8 μM), sodium diethyldithiocarbamate (CYP2E1, 20 μM), and ketoconazole (CYP3A4, 2 μM). The sample incubated without inhibitors was used as a negative control. The sample was incubated with dimethyl sulfoxide (DMSO) (25%) as a positive control in this study. Following this pilot, confirmatory experiments were conducted by incubating with DLM in the presence of specific CYP450 inhibitors.

T2 sequence (Q9MZY0 whole entry): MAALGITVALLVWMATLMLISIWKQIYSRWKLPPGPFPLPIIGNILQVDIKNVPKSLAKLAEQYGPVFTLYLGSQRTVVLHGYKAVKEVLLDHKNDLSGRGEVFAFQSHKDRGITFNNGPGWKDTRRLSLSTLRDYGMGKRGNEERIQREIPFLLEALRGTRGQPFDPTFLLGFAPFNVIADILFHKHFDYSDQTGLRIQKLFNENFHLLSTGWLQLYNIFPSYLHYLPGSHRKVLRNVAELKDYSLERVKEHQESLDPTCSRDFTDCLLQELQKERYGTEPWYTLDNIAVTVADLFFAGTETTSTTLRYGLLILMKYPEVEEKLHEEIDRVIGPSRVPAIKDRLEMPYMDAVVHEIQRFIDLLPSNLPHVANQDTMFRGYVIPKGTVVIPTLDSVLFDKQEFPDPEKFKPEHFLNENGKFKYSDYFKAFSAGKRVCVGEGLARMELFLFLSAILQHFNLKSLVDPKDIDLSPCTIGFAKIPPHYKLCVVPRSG

In general, IC50 refers to the concentration that gives 50% inhibition. By Ki is commonly meant a dissociation constant, usually derived from enzyme kinetics or from competition with a known ligand. Turning to Lekethromycin [LKMS], the IC50 was above 200 µM at CYP1A2; 62.5 µM in the data set with CYP2A6 [1] (dog liver microsomes, coumarin hydroxylation, probe at Km, 15 min, 0.2 mg/mL protein, n = 3); above 200 µM in the data set on CYP2C9; above 200 µM at CYP2E1. In addition, the Mode of inhibition entry in the data set on CYP2A6 [1] (CYP2A6, Lineweaver-Burk plots) is “mixed-type inhibition”. Also, the inhibitory constant (Ki) with CYP2A6 [1] (CYP2A6, dog liver microsomes, Lineweaver-Burk and secondary (slope) plot, n = 2, read-out: Ki (inhibition constant)) worked out at 136 µM. The “αKi (alpha inhibition constant)” value in the data set with CYP2A6 [1] (CYP2A6, dog liver microsomes, secondary (intercept) plot, n = 2) amounted to 227.6 µM. In addition, the “IC50 fold-shift, Shift Ratio (−NADPH/+NADPH)” value in the data set on CYP2A6 [2] (CYP2A6, 30 min preincubation at 37 °C with and without NADPH) is given as 1.29; at CYP2B6 (CYP2B6, 30 min preincubation at 37 °C with and without NADPH), 0.88. Further, the Time-dependent inhibition entry with CYP2A6 [2] (CYP2A6, judged from IC50 fold-shift <1.5) is “might not be a time-dependent inhibitor”; on CYP2B6 (CYP2B6, judged from IC50 fold-shift <1.5), “might not be a time-dependent inhibitor”. In addition, the “Decrease of biotransformation rate of LKMS” value in data set [3] (CYP1A2 inhibitor α-naphthoflavone 2 μM), in data set [3] (CYP2A6 inhibitor pilocarpine 8 μM), in data set [3] (CYP2B6 inhibitor Thio-TEPA 6 μM), in data set [3] (CYP2C9 inhibitor sulfaphenazole 6 μM) and in data set [3] (CYP2E1 inhibitor sodium diethyldithiocarbamate 20 μM) was “about 50%” each time.
